The values that follow come from PMC2858921 (Toxicology and applied pharmacology, 2008).

Broadly, the IC50 is the concentration that gives 50% inhibition.

“Also recorded” adds a separate entry of the source. Where two headings read alike, the source gives them in different places. Marks after values point to notes of the source that are not given here.

The subject of data set [1] is testosterone hydroxylase (CYP3A27-related). Nature of the data set: [14C]Testosterone hydroxylase activity in liver microsomes. To be noted: Ketoconazole 500 μM; below detection; data not shown. A general note: Microsomes from liver hold many membrane-bound enzymes, among them those of drug oxidation.
The next data set in a line: CYP. As to conditions: for reduction of fenoxon formation: liver microsomes, ketoconazole 500 μM; for Fenoxon formation from fenthion / MMTP (NADPH-dependent) formation from fenthion / MMTP (NADPH-independent) formation from fenthion / R-Fenthion sulfoxide formation from fenthion / S-Fenthion sulfoxide formation from fenthion: liver, NADPH+ ketoconazole (500 μM)+ fenthion.

Another data set addresses T1, recombinant human FMO1 (Homo sapiens, UniProt Q01740).
T1 sequence (Q01740 1-532): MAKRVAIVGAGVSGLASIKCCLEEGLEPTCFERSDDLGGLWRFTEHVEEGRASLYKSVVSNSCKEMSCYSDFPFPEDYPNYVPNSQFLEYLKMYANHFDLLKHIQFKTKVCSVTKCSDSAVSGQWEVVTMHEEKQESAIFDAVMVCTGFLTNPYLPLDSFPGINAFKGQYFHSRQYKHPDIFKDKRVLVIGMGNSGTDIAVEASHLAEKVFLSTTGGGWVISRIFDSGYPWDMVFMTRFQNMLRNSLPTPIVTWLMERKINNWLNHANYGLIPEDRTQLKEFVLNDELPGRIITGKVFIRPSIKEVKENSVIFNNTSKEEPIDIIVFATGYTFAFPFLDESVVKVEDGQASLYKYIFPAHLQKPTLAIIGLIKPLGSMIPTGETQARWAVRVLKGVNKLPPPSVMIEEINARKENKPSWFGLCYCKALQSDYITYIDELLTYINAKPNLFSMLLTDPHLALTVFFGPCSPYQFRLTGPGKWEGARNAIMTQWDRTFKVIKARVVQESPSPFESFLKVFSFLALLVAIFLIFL
Nature of the data set: Biotransformation by recombinant human FMO1. As to conditions: fenthion sulfoxide as substrate.

Data set [2] can be described thus: Fenthion, fenoxon and fenthion sulfoxide metabolism in liver microsomes. As to conditions: for R-fenoxon sulfoxide formation / S-fenoxon sulfoxide formation: liver, substrate 100 μM; for Vmax, Fenoxon formation / Vmax, MMTP (NADPH-dependent) formation / Vmax, MMTP (NADPH-independent) formation / Vmax, R-fenthion sulfoxide formation / Vmax, S-fenthion sulfoxide formation / Vmax, R-fenoxon sulfoxide formation / Vmax, S-fenoxon sulfoxide formation: liver microsomes incubated with fenthion.

Another data set concerns AChE. As to conditions: read-out: IC50 (AChE inhibition); ref Gadepalli et al., 2007; cited from earlier work.
The nature of data set [3]: Fenthion, fenoxon and fenthion sulfoxide metabolism in gill microsomes. To be noted: gills, substrate 100 μM, bdl: <0.3.
The conditions of data set [4]: olfactory tissues.
Data set [5] in a line: Cleavage in cytosolic incubations. To be noted: data not shown.
The test system of another data set is FMO3. As to conditions: ref Furnes and Schlenk, 2003, 2004; cited from earlier work.
Data set [6] can be described thus: TEPP inhibition of MMTP formation from fenthion, olfactory tissue microsomes. In kind it is biochemical, rainbow trout (Oncorhynchus mykiss). To be noted: freshwater-acclimated.
Data set [7] in a line: TEPP inhibition of MMTP formation from fenthion, liver microsomes. In kind it is biochemical, rainbow trout (Oncorhynchus mykiss). As to conditions: freshwater-acclimated.
Data set [8] can be described thus: TEPP inhibition of MMTP formation from fenthion, gill microsomes. As to conditions: Gills, freshwater-acclimated. In kind it is biochemical, rainbow trout (Oncorhynchus mykiss).
The mark [9] stands for this setting: Table 1, freshwater-acclimated, bdl: <0.3.
[10] abbreviates: Table 1, freshwater-acclimated, substrate 100 μM, bdl: <0.3.

As to `CC(=O)N1CCN(c2ccc(OCC3COC(Cn4ccnc4)(c4ccc(Cl)cc4Cl)O3)cc2)CC1` (centres unmarked) [ketoconazole], the “testosterone hydroxylase activity with inhibitor” value in data set [1] is on record as below 0.2 pmol/min/mg protein. Moreover, in the data set “CYP” (liver microsomes from HA fish, co-incubation), the “fenoxon sulfoxide formation with inhibitor” value is “below detection”. The “reduction of fenoxon formation” value in “CYP” (FA fish) was determined as 67%. Moreover, the “reduction of fenoxon formation” value in “CYP” (HA fish) is listed as 60%. In “CYP” (Freshwater), the “Fenoxon formation from fenthion” value was 6.9±1.3 pmol/min/mg protein, the “MMTP (NADPH-dependent) formation from fenthion” value was found to be 121.2±15.3 pmol/min/mg protein, the “MMTP (NADPH-independent) formation from fenthion” value is recorded as 5.3±2.1 pmol/min/mg protein and the “R-Fenthion sulfoxide formation from fenthion” value worked out at 16.7±1.7 pmol/min/mg protein. In “CYP” (Freshwater), the “S-Fenthion sulfoxide formation from fenthion” value was 33.7±2.7 pmol/min/mg protein. For the same compound, in the data set “CYP” (Hypersaline), the “Fenoxon formation from fenthion” value is 16.8±2.4 pmol/min/mg protein, the “MMTP (NADPH-dependent) formation from fenthion” value was found to be 13.2±4.5 pmol/min/mg protein, the “MMTP (NADPH-independent) formation from fenthion” value is 4.5±1.1 pmol/min/mg protein and the “R-Fenthion sulfoxide formation from fenthion” value came to 83.4±8.4 pmol/min/mg protein. Moreover, in the data set “CYP” (Hypersaline), the “S-Fenthion sulfoxide formation from fenthion” value is 168.4±13.2 pmol/min/mg protein.

In the case of `COP(=S)(OC)Oc1ccc([S+](C)[O-])c(C)c1` (centres unmarked) [fenthion sulfoxide], the Fenoxon sulfoxides production result on recombinant human FMO1 is on record as “not produced”.

On to `COP(=S)(OC)Oc1ccc([S@@+](C)[O-])c(C)c1` [R-fenthion sulfoxide], for which the R-fenoxon sulfoxide formation in data set [2] (setting [9]) is reported as 5.2±1.1 pmol/min/mg protein; in data set [2] (Table 3, Freshwater, bdl: <0.3) it was 5.2±1.1 pmol/min/mg protein; in [2] (Table 3, Hypersaline) it was 9.2±0.3 pmol/min/mg protein; in data set [3] (Table 1, freshwater-acclimated), 2.9±0.1 pmol/min/mg protein; in data set [3] (Table 4, Freshwater) it was 2.9±0.1 pmol/min/mg protein; in data set [4] (setting [10]), “bdl”. In the data set with AChE, the concentration for half-maximal inhibition (IC50) is above 1000 µM.

As for `COP(=S)(OC)Oc1ccc(SC)c(C)c1` [Fenthion, O,O-dimethyl-O-(4-methylmlercapto)-3-methylphenylthio-phosphate], in data set [2] (Freshwater), the “Vmax, Fenoxon formation” value worked out at 82.8±4.6 pmol/min/mg protein; the “Vmax, MMTP (NADPH-dependent) formation” value is 199.2±24.4 pmol/min/mg protein; the “Vmax, MMTP (NADPH-independent) formation” value was 53.7±4.8 pmol/min/mg protein; the “Vmax, R-fenthion sulfoxide formation” value came out at 78.6±5.2 pmol/min/mg protein. For the same compound, the “Vmax, S-fenthion sulfoxide formation” value in data set [2] (Freshwater) was 173.4±9.6 pmol/min/mg protein. Moreover, in [2] (Freshwater, bdl: <0.3), the “Vmax, R-fenoxon sulfoxide formation” value is recorded as “bdl” and the “Vmax, S-fenoxon sulfoxide formation” value is on record as “bdl”. For the same compound, in data set [2] (Hypersaline), the “Vmax, Fenoxon formation” value was 130.0±6.1 pmol/min/mg protein; the “Vmax, MMTP (NADPH-dependent) formation” value worked out at 35.1±1.9 pmol/min/mg protein; the “Vmax, MMTP (NADPH-independent) formation” value was 59.8±10.5 pmol/min/mg protein; the “Vmax, R-fenoxon sulfoxide formation” value turned out to be 7.7±0.6 pmol/min/mg protein. Besides, in data set [2] (Hypersaline), the “Vmax, R-fenthion sulfoxide formation” value is reported as 201.1±11.9 pmol/min/mg protein; the “Vmax, S-fenoxon sulfoxide formation” value was determined as 18.4±1.1 pmol/min/mg protein; the “Vmax, S-fenthion sulfoxide formation” value is 355.7±9.4 pmol/min/mg protein. For the same compound, in data set [2] (setting [9]), the R-fenoxon sulfoxide formation result was “bdl” and the S-fenoxon sulfoxide formation entry is “bdl”. In addition, in data set [2] (Table 3, Freshwater, bdl: <0.3), the R-fenoxon sulfoxide formation result is “bdl” and the S-fenoxon sulfoxide formation entry is given as “bdl”. Besides, in data set [2] (liver microsomes, HA fish), the “efficiency of R-sulfoxide formation relative to fenoxon” value was 2 fold and the “efficiency of S-sulfoxide formation relative to R-sulfoxide” value is reported as “approximately 3 fold”. In data set [5], the “NADPH-independent or dependent cleavage” value was “not observed”. The S-sulfoxide excess formed with FMO3 was 75%. In data set [3] (Table 1, freshwater-acclimated), the R-fenoxon sulfoxide formation entry is given as “bdl” and the S-fenoxon sulfoxide formation entry is listed as “bdl”. Further, in data set [3] (Table 4, Freshwater), the R-fenoxon sulfoxide formation result is “bdl” and the S-fenoxon sulfoxide formation entry was “bdl”. In addition, in data set [3] (Table 4, Hypersaline), the R-fenoxon sulfoxide formation result is reported as “bdl” and the S-fenoxon sulfoxide formation entry is “bdl”. Further, in data set [4] (setting [10]), the Fenoxon formation entry is “bdl”, the R-fenoxon sulfoxide formation result was “bdl”, the R-fenthion sulfoxide formation result is “bdl” and the S-fenoxon sulfoxide formation entry is recorded as “bdl”. In [4] (setting [10]), the S-fenthion sulfoxide formation entry was “bdl”. Moreover, the sulfoxidation entry in data set [4] (HA fish, data not shown) is on record as “not detected”.

Take `CCOP(=O)(OCC)OP(=O)(OCC)OCC` [TEPP, tetraethylpyrophosphate]: the “MMTP Formation from fenthion, NADPH-dependent” value was 254.3±18.1^a pmol/min/mg protein in data set [6] (100 μM TEPP); 100.2±13.3^b pmol/min/mg protein in [6] (500 μM TEPP); “below detection; also recorded: bdl^c” in [6] (1000 μM TEPP, bdl: <0.3); 138.4±10.3^a pmol/min/mg protein in data set [7] (100 μM TEPP); 65.4±11.1^b pmol/min/mg protein in data set [7] (500 μM TEPP); “below detection; also recorded: bdl^c” in data set [7] (1000 μM TEPP, bdl: <0.3). Also, the “MMTP Formation from fenthion, NADPH-dependent” value is 105.3±8.9^a pmol/min/mg protein in [8] (100 μM TEPP); 74.3±10.1^b pmol/min/mg protein in data set [8] (500 μM TEPP); “below detection; also recorded: bdl^c” in data set [8] (1000 μM TEPP, bdl: <0.3). The “MMTP Formation from fenthion, NADPH-independent” value in data set [6] (500 μM TEPP, bdl: <0.3) is “bdl^b”; in data set [6] (1000 μM TEPP, bdl: <0.3), “bdl^b”; in data set [7] (500 μM TEPP, bdl: <0.3), “bdl^b”; in data set [7] (1000 μM TEPP, bdl: <0.3), “bdl^b”; in data set [8] (500 μM TEPP, bdl: <0.3) it was “bdl^b”; in [8] (1000 μM TEPP, bdl: <0.3), “bdl^b”.

Regarding `COP(=S)(OC)Oc1ccc([S+](C)[O-])c(C)c1` (centres unmarked) [S-fenthion sulfoxide], the S-fenoxon sulfoxide formation in data set [2] (setting [9]) was 6.1±0.2 pmol/min/mg protein; in data set [2] (Table 3, Freshwater, bdl: <0.3) it was 6.1±0.2 pmol/min/mg protein; in data set [2] (Table 3, Hypersaline) it was 12.2±3.2 pmol/min/mg protein; in data set [3] (Table 1, freshwater-acclimated), 2.3±0.2 pmol/min/mg protein; in [3] (Table 4, Freshwater), 2.1±0.1 pmol/min/mg protein; in data set [4] (setting [10]), “bdl”.
